Laboratory results taken from patent publication US8193173B2, “Liver function ameliorant” (Tokyo University of Agriculture and Technology TLO Co., Ltd., priority 2006, dated 2012).

What was measured:
[1] = system: chronic hepatitis model mice; assay: Liver function ameliorative effects in chronic hepatitis model mice (carbon tetrachloride); plasma AST, ALT, ChE; type: in vivo, ICR mice
Protocol: Production of chronic hepatitis model mice was carried out according to a modified version of the method of Vogten et al. (J. Mathys Vogten et al., Int. J. Colorectal Dis. (2004), 19: 387-394).
ICR mice weighing about 30 g (age: 6 weeks, males, supplier: Sankyo Labo Service) were used in the experiment after preliminarily housing for 5 days while allowing free access to solid feed (Labo MR Stock) and distilled water. The animals were housed in an animal room set to conditions consisting of a temperature of 22±2° C., humidity of 60±5% and light-dark cycle of 12 hours.
Following preliminary housing, the animals were intraperitoneally administered carbon tetrachloride (10% corn oil solution (v/v)) three times a week. The initially dose was 330 μl/kg, the second dose was […], and all subsequent doses were 500 μl/kg. This administration was carried out over the course of six weeks to produce chronic hepatitis model mice.
After administering carbon tetrachloride for 6 weeks, the animals were divided into an orniplabin dose group and control group so as to be statistically equivalent (orniplabin dose group: 7 animals, control group: 6 animals). Orniplabin was continuously administered into the abdominal cavity at 10 mg/kg. The control group was continuously administered physiological saline into the abdominal cavity at 2 ml/kg. This procedure was carried out for 14 days.
Following completion of administration, blood samples were collected from the vena cava into a syringe barrel containing anticoagulant in the form of 3.8% sodium citrate solution ( 1/10 volume of collected blood), and the resulting blood was centrifuged immediately for 20 minutes at 3000 rpm to collect the supernatant for use as blood samples.
The levels of AST ([…], GOT), ALT (alanine aminotransferase, GPT) and ChE (cholinesterase) were measured for the resulting blood samples (Hitachi Model 7180 Autoanalyzer).

plasminogen [2] = target: T1, plasminogen (Homo sapiens, UniProt P00747); conditions: JP 2004-224737; cited from earlier work
T1 sequence (P00747 20-810 limits assumed, species assumed): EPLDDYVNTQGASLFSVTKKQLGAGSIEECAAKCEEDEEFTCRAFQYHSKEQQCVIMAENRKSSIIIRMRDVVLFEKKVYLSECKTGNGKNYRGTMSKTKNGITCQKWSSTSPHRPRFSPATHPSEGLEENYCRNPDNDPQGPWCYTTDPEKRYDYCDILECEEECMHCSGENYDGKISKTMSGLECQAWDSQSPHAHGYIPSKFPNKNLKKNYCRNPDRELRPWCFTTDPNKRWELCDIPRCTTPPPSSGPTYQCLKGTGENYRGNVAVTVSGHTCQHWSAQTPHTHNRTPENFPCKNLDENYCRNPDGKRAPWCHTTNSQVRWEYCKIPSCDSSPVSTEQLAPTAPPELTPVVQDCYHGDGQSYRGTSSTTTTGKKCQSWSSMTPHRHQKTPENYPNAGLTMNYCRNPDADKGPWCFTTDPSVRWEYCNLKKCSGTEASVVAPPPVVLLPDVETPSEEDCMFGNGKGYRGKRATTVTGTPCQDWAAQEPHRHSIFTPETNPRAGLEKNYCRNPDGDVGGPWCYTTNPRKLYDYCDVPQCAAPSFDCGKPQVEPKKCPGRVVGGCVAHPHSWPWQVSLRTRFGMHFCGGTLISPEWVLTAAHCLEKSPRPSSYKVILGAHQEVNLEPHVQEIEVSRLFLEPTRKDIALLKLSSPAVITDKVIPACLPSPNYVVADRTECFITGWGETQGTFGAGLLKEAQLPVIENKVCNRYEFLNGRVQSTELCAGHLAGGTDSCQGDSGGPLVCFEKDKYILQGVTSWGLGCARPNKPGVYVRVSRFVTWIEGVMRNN

plasminogen [3] = target: T1, plasminogen; conditions: cited from earlier work
[4] = system: pulmonary embolism model rats; conditions: pulmonary embolism model rats in vivo; cited from earlier work
[5] = 10 mg/kg into the abdominal cavity for 14 days, versus normal level

With `CC(C)=CCC/C(C)=C/CCC1(C)Oc2c(c(O)cc3c2CN(CCCC(C(=O)O)N2Cc4c(cc(O)c5c4OC(C)(CC/C=C(\C)CCC=C(C)C)C(O)C5)C2=O)C3=O)CC1O` (stereo not drawn) [orniplabin] the “plasma AST, orniplabin dose group as compared with the control group” value ([1]; 10 mg/kg into the abdominal cavity for 14 days after 6 weeks carbon tetrachloride, FIG. 1) was “significant (P<0.01) decrease”, the “plasma ALT, orniplabin dose group versus control group” value ([1]; 10 mg/kg into the abdominal cavity for 14 days after 6 weeks carbon tetrachloride, FIG. 2) was “no significant differences observed” and the “plasma ChE, orniplabin dose group as compared with the control group” value ([1]; 10 mg/kg into the abdominal cavity for 14 days after 6 weeks carbon tetrachloride, FIG. 3) was “significant (P<0.01) increase”. For the same compound, the “plasma ALT, orniplabin dose group as compared with the normal group” value ([1]; 10 mg/kg into the abdominal cavity for 14 days, FIG. 2) was “increases were not observed”, the “cholinesterase levels (protein synthesis ability of the liver)” value [1, 5] was “recovered to the same level as the normal level” and the “degree of impaired liver function (AST and ALT)” value [1, 5] was “recover to nearly the normal level”. For the same compound, the plasminogen activation (plasminogen [2]) was “promotes plasminogen activation”, the “binding of plasminogen to fibrin” value (plasminogen [3]) was “promotes binding of plasminogen to fibrin” and the “dissolution of pulmonary embolisms thrombus” value [4] was “promotes dissolution of pulmonary embolisms thrombus”.
